Experiments:
[1] = Compound was coli; parameters: species or system Escherichia coli
[2] = Compound was coli; Inactive; parameters: species or system Escherichia coli

Row | IC50 [1] | IC50 [2] | Structure (SMILES)
1 | 106 nM l-1 | – | C=CC(C)(CC/C=C(\C)CCC=C(C)C)C(O)CO[C@H](COP(=O)(O)O[C@H]1O[C@@H](C(N)=O)[C@@](C)(O)[C@H](OC(N)=O)[C@@H]1O[C@@H]1O[C@@H](CO[C@@H]2O[C@@H](CO)[C@@H](O)[C@H](O)[C@@H]2O)[C@@H](O[C@@H]2O[C@@H](C)[C@@H](O[C@@H]3O[C@@H](C(N)=O)[C@H](O)[C@H](O)[C@@H]3O)[C@H](O)[C@@H]2NC(C)=O)[C@H](O)[C@@H]1NC(C)=O)C(=O)O (stereo not given in full)
2 | 247 nM l-1 | – | CCCCCCCCCCCCCCNCCO[C@H](COP(=O)(O)O[C@H]1O[C@@H](C(N)=O)[C@@](C)(O)[C@H](OC(N)=O)[C@@H]1O[C@@H]1O[C@@H](CO[C@@H]2O[C@@H](CO)[C@@H](O)[C@H](O)[C@@H]2O)[C@@H](O[C@@H]2O[C@@H](C)[C@@H](O[C@@H]3O[C@@H](C(N)=O)[C@H](O)[C@H](O)[C@@H]3O)[C@H](O)[C@@H]2NC(C)=O)[C@H](O)[C@@H]1NC(C)=O)C(=O)O
3 | 31 nM l-1 | – | CCCCCCCCc1ccc(NCCO[C@H](COP(=O)(O)O[C@H]2O[C@@H](C(N)=O)[C@@](C)(O)[C@H](OC(N)=O)[C@@H]2O[C@@H]2O[C@@H](CO[C@@H]3O[C@@H](CO)[C@@H](O)[C@H](O)[C@@H]3O)[C@@H](O[C@@H]3O[C@@H](C)[C@@H](O[C@@H]4O[C@@H](C(N)=O)[C@H](O)[C@H](O)[C@@H]4O)[C@H](O)[C@@H]3NC(C)=O)[C@H](O)[C@@H]2NC(C)=O)C(=O)O)cc1
4 | – | Not Active | CC(=O)N[C@@H]1[C@H](O[C@H]2[C@H](O)[C@H](NC(C)=O)[C@H](O[C@@H]3[C@@H](OP(=O)(O)OC[C@@H](OCCN(C4CCCCC4)C4CCCCC4)C(=O)O)O[C@@H](C(N)=O)[C@@](C)(O)[C@@H]3OC(N)=O)O[C@H]2CO[C@@H]2O[C@@H](CO)[C@@H](O)[C@H](O)[C@@H]2O)O[C@@H](C)[C@@H](O[C@@H]2O[C@@H](C(N)=O)[C@H](O)[C@H](O)[C@@H]2O)[C@@H]1O
5 | 1.5 nM l-1 | – | C=C(C/C=C(\C)CCC=C(C)C)CCC(C)(C)/C=C/CC/C(C)=C/CO[C@@H](COP(=O)(O)O[C@H]1O[C@H](C(N)=O)[C@@](C)(O)[C@H](OC(N)=O)[C@H]1O[C@@H]1O[C@H](CO[C@@H]2O[C@H](CO)[C@@H](O)[C@H](O)[C@H]2O)[C@@H](O[C@@H]2O[C@H](C)[C@@H](O[C@@H]3O[C@H](C(=O)NC4=C(O)CCC4=O)[C@H](O)[C@H](O)[C@H]3O)[C@H](O)[C@H]2NC(C)=O)[C@H](O)[C@H]1NC(C)=O)C(=O)O [MOENOMYCIN A]

Source: ChEMBL document CHEMBL1133292, “Some selective reactions of moenomycin A” (Bioorg Med Chem Lett, 2000)
